This is an account of results in PMC7983974 (Basic & Clinical Pharmacology & Toxicology, 2020).

Series [1] addresses T1, UGT-mediated glucuronidation of molidustat (M1 formation) (Homo sapiens, UniProt P22309).
T1 sequence (P22309 26-533): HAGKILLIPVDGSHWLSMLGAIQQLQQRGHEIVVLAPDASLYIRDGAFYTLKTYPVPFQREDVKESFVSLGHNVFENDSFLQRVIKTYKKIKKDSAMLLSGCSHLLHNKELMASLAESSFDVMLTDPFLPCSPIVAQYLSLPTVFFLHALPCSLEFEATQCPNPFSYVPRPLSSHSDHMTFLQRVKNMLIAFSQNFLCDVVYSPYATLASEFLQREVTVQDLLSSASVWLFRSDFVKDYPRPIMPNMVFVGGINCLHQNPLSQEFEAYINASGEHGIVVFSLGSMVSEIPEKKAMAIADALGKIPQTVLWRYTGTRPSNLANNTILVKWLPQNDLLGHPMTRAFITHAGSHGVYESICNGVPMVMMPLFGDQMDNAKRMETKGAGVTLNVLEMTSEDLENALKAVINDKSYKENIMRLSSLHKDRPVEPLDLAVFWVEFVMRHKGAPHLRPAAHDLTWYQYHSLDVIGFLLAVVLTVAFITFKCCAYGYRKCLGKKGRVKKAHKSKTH
In words: Inhibition of M1 formation from molidustat in pooled human liver microsomes. The series is classed as in vitro ADME. To be noted: human, pooled human liver microsomes, probe molidustat 5 µmol/L (formation of M1), IC50, pooled HLMs 0.3 mg/mL, N=1, Table 1. In general terms: Liver microsomes are a subcellular fraction often used to study metabolism.

Series [2] deals with molidustat glucuronidation (clearance). In words: In vitro-in vivo scaling: predicted increase in molidustat AUC. To be noted: fm 0.9; unbound hepatic inlet concentration, ka 0.1 min^−1. The arrangement: species or system human.
Series [3] is classed as in vivo, human. To be noted: for t max: n = 13, median and range.
Where [4] appears, read: (Molidustat + atazanavir)/molidustat, ANOVA.

Values joined by “and” are separate entries in the source; they are usually repeats but may differ in a detail not shown here. Identical values can stand only once. Like-named read-outs stand apart in the source and are kept apart here.

The term IC50 denotes the midpoint of a concentration-inhibition curve. In series [1], `Oc1cc(O)c2c(c1)O[C@H](c1cc(O)c(O)c(O)c1)[C@H](O)C2` [(‐)‐Epigallocatechin] gave an IC50 at 30 min of 5.1 µM.
The same measure, in the same setting: the value for `C[C@]12CC[C@@H](O)C[C@@H]1CC[C@@H]1[C@@H]2CC[C@]2(C)C(=O)CC[C@@H]12` [Androsterone] was 44 µM; that for `COc1ccc(CCN2CCC(Nc3nc4ccccc4n3Cc3ccc(F)cc3)CC2)cc1` [Astemizole] was 23.5 µM.
Regarding `COC(=O)N[C@H](C(=O)N[C@@H](Cc1ccccc1)[C@@H](O)CN(Cc1ccc(-c2ccccn2)cc1)NC(=O)[C@@H](NC(=O)OC)C(C)(C)C)C(C)(C)C` [Atazanavir], in series [2], the “AUCRinlet, ka 0.1 min^−1 (estimated increase in molidustat AUC)” value is on record as “more than fivefold”.
In series [1], `CC(C)=CCC/C(C)=C/COc1c2ccoc2cc2oc(=O)ccc12` [Bergamottin] displayed an IC50 at 30 min of 14.8 µM.
In series [1], `C=CC1=C(C)/C(=C/c2[nH]c(Cc3[nH]c(/C=C4\NC(=O)C(C)=C4C=C)c(C)c3CCC(=O)O)c(CCC(=O)O)c2C)NC1=O` [Bilirubin] registered an IC50 at 30 min of 1.5 µM.
Same read-out and setting: the value for `COc1ccccc1OCCNCC(O)COc1cccc2[nH]c3ccccc3c12` (centres unmarked) [Carvedilol] was 2.9 µM; that for `Cc1ccc(-c2cc(C(F)(F)F)nn2-c2ccc(S(N)(=O)=O)cc2)cc1` [Celecoxib] was 10.6 µM.
The same measure, in the same setting: in the case of `COc1cc(N)c(Cl)cc1C(=O)NC1CCN(CCCOc2ccc(F)cc2)CC1OC` (centres unmarked) [Cisapride] it was 4.1 µM; in that of `Clc1ccccc1C(c1ccccc1)(c1ccccc1)n1ccnc1` [Clotrimazole], 10.2 µM.
As for `COc1cc(/C=C/C(=O)CC(=O)/C=C/c2ccc(O)c(OC)c2)ccc1O` [Curcumin], the IC50 at 30 min in series [1] came out at 2.2 µM.
As to `O=c1c(-c2ccc(O)cc2)coc2cc(O)ccc12` [Daidzein], the IC50 at 30 min in series [1] stood at 6.8 µM.
The same measure, in the same setting: the value for `Cc1nc(Nc2ncc(C(=O)Nc3c(C)cccc3Cl)s2)cc(N2CCN(CCO)CC2)n1` [Dasatinib] was 1.4 µM.
On the same count and under the same terms, in the case of `O=C(O)Cc1ccccc1Nc1c(Cl)cccc1Cl` [Diclofenac] it was 38.2 µM; in that of `O=C(O)c1cc(-c2ccc(F)cc2F)ccc1O` [Diflunisal], 75.6 µM.
Still for that read-out and setting: in the case of `COc1cccc2c1C(=O)c1c(O)c3c(c(O)c1C2=O)C[C@@](O)(C(=O)CO)C[C@@H]3O[C@H]1C[C@H](N)[C@H](O)[C@H](C)O1` [Doxorubicin] it was 40.4 µM; in that of `O=C1Nc2ccc(Cl)cc2[C@@](C#CC2CC2)(C(F)(F)F)O1` [Efavirenz], 8 µM.
In series [1], `C#Cc1cccc(Nc2ncnc3cc(OCCOC)c(OCCOC)cc23)c1` [Erlotinib] returned a half-maximal inhibitory concentration (IC50) at 30 min of 0.13 µM. Further, in series [2], the “AUCRinlet, ka 0.1 min^−1 (estimated increase in molidustat AUC)” value is recorded as “more than fivefold”.
`CO[C@H]1C[C@@H]2CC[C@@H](C)[C@@](O)(O2)C(=O)C(=O)N2CCCC[C@H]2C(=O)O[C@H]([C@H](C)C[C@@H]2CC[C@@H](OCCO)[C@H](OC)C2)CC(=O)[C@H](C)/C=C(\C)[C@@H](O)[C@@H](OC)C(=O)[C@H](C)C[C@H](C)/C=C/C=C/C=C/1C` [Everolimus]: the midpoint of inhibition in series [1], the IC50 at 30 min, lay at 4.5 µM.
`Cc1nc(-c2ccc(OCC(C)C)c(C#N)c2)sc1C(=O)O` [Febuxostat] had a half-maximal inhibitory concentration (IC50) at 30 min in series [1] of 7.2 µM.
On the same count and under the same terms, in the case of `COc1cc2ncnc(Nc3ccc(F)c(Cl)c3)c2cc1OCCCN1CCOCC1` [Gefitinib] it was 1.8 µM.
The same measure, in the same setting: the value for `O=c1c(-c2ccc(O)cc2)coc2cc(O)cc(O)c12` [Genistein] was 2.3 µM; that for `COc1ccc(Cl)cc1C(=O)NCCc1ccc(S(=O)(=O)NC(=O)NC2CCCCC2)cc1` [Glibenclamide] was 6.3 µM.
As for `CC(C)(C)NC(=O)[C@@H]1CN(Cc2cccnc2)CCN1C[C@@H](O)C[C@@H](Cc1ccccc1)C(=O)N[C@H]1c2ccccc2C[C@H]1O` [Indinavir], it took 3 µM to reach half-maximal inhibition in series [1] (IC50 at 30 min).
Same read-out and setting: the value for `CCC(C)n1ncn(-c2ccc(N3CCN(c4ccc(OCC5COC(Cn6cncn6)(c6ccc(Cl)cc6Cl)O5)cc4)CC3)cc2)c1=O` (centres unmarked) [Itraconazole] was 1.2 µM; that for `CC(=O)N1CCN(c2ccc(OCC3COC(Cn4ccnc4)(c4ccc(Cl)cc4Cl)O3)cc2)CC1` (centres unmarked) [Ketoconazole] was 6.1 µM; that for `Cc1c(OCC(F)(F)F)ccnc1C[S+]([O-])c1nc2ccccc2[nH]1` (centres unmarked) [Lansoprazole] was 36.8 µM.
`CS(=O)(=O)CCNCc1ccc(-c2ccc3ncnc(Nc4ccc(OCc5cccc(F)c5)c(Cl)c4)c3c2)o1` [Lapatinib]: it took 2.5 µM to reach half-maximal inhibition in series [1] (IC50 at 30 min).
`Cc1cccc(C)c1OCC(=O)N[C@@H](Cc1ccccc1)[C@@H](O)C[C@H](Cc1ccccc1)NC(=O)[C@H](C(C)C)N1CCCNC1=O` [Lopinavir] had a half-inhibitory concentration (IC50) at 30 min in series [1] of 1.3 µM.
The same measure, in the same setting: in the case of `CC[C@H](C)C(=O)O[C@H]1C[C@@H](C)C=C2C=C[C@H](C)[C@H](CC[C@@H]3C[C@@H](O)CC(=O)O3)[C@H]21` [Lovastatin] it was 10.5 µM; in that of `CC[C@H](C)C(=O)O[C@H]1CCC=C2C=C[C@H](C)[C@H](CC[C@@H]3C[C@@H](O)CC(=O)O3)[C@H]21` [Mevastatin], 13.2 µM; in that of `COCC(=O)O[C@]1(CCN(C)CCCc2nc3ccccc3[nH]2)CCc2cc(F)ccc2[C@@H]1C(C)C` [Mibefradil], 20.2 µM.
`Clc1ccc(COC(Cn2ccnc2)c2ccc(Cl)cc2Cl)c(Cl)c1` (centres unmarked) [Miconazole] gave a half-inhibitory concentration (IC50) at 30 min in series [1] of 19.3 µM.
`Cc1ncc2n1-c1ccc(Cl)cc1C(c1ccccc1F)=NC2` [Midazolam] returned an IC50 at 30 min in series [1] of 11.1 µM.
Same read-out and setting: in the case of `CC#C[C@]1(O)CC[C@H]2[C@@H]3CCC4=CC(=O)CCC4=C3[C@@H](c3ccc(N(C)C)cc3)C[C@@]21C` [Mifepristone] it was 1.4 µM; in that of `CC(C)(O)c1ccccc1CC[C@@H](SCC1(CC(=O)O)CC1)c1cccc(/C=C/c2ccc3ccc(Cl)cc3n2)c1` [Montelukast], 0.49 µM.
In series [1], `O=C1C[C@@H](c2ccc(O)cc2)Oc2cc(O)cc(O)c21` [Naringenin] gave an IC50 at 30 min of 11.6 µM.
In turn, `CCc1nn(CCCN2CCN(c3cccc(Cl)c3)CC2)c(=O)n1CCOc1ccccc1` [Nefazodone] yielded a concentration for half-maximal inhibition (IC50) at 30 min in series [1] of 11.4 µM.
Turning to `Cc1c(O)cccc1C(=O)N[C@@H](CSc1ccccc1)[C@H](O)CN1C[C@H]2CCCC[C@H]2C[C@H]1C(=O)NC(C)(C)C` [Nelfinavir], half-maximal inhibition in series [1] (IC50 at 30 min) required 1.5 µM.
Still for that read-out and setting: the value for `O=C(O)c1cccnc1Nc1cccc(C(F)(F)F)c1` [Niflumic acid] was 14.6 µM; that for `COc1ccc2[nH]c([S+]([O-])Cc3ncc(C)c(OC)c3C)nc2c1` (centres unmarked) [Omeprazole] was 17.1 µM; that for `CC(=O)O[C@H]1C(=O)[C@@]2(C)[C@H]([C@H](OC(=O)c3ccccc3)[C@]3(O)C[C@H](OC(=O)[C@H](O)[C@@H](NC(=O)c4ccccc4)c4ccccc4)C(C)=C1C3(C)C)[C@]1(OC(C)=O)CO[C@@H]1C[C@@H]2O` [Paclitaxel] was 10.8 µM.
Still for that read-out and setting: the value for `COc1ccnc(C[S+]([O-])c2nc3ccc(OC(F)F)cc3[nH]2)c1OC` (centres unmarked) [Pantoprazole] was 19.7 µM.
As to `O=C(O)C[C@H](O)C[C@H](O)/C=C/c1c(C2CC2)nc2ccccc2c1-c1ccc(F)cc1` [Pitavastatin], the midpoint of inhibition in series [1], the IC50 at 30 min, lay at 14.8 µM.
Turning to `O=c1c(O)c(-c2ccc(O)c(O)c2)oc2cc(O)cc(O)c12` [Quercetin], in series [1], inhibition was half-maximal at 5.5 µM (IC50 at 30 min).
Regarding `CN(CCOc1ccc(CC2SC(=O)NC2=O)cc1)c1ccccn1` (centres unmarked) [Rosiglitazone], in series [1], the midpoint of inhibition, the IC50 at 30 min, lay at 10.7 µM.
Same read-out and setting: the value for `CCCc1nn(C)c2c(=O)[nH]c(-c3cc(S(=O)(=O)N4CCN(C)CC4)ccc3OCC)nc12` [Sildenafil] was 46.2 µM; that for `CNC(=O)c1cc(Oc2ccc(NC(=O)Nc3ccc(Cl)c(C(F)(F)F)c3)cc2)ccn1` [Sorafenib] was 0.32 µM; that for `O=C1C(CC[S+]([O-])c2ccccc2)C(=O)N(c2ccccc2)N1c1ccccc1` (centres unmarked) [Sulfinpyrazone] was 31.4 µM.
In series [1], `CC1=C(CC(=O)O)c2cc(F)ccc2/C1=C\c1ccc([S+](C)[O-])cc1` (centres unmarked) [Sulindac] had an IC50 at 30 min of 37.5 µM.
The same measure, in the same setting: in the case of `CCN(CC)CCNC(=O)c1c(C)[nH]c(/C=C2\C(=O)Nc3ccc(F)cc32)c1C` [Sunitinib] it was 18.7 µM; in that of `C=CC[C@@H]1/C=C(\C)C[C@H](C)C[C@H](OC)[C@H]2O[C@@](O)(C(=O)C(=O)N3CCCC[C@H]3C(=O)O[C@H](/C(C)=C/[C@@H]3CC[C@@H](O)[C@H](OC)C3)[C@H](C)[C@@H](O)CC1=O)[C@H](C)C[C@@H]2OC` [Tacrolimus], 0.7 µM.
In the case of `CCCc1nc2c(C)cc(-c3nc4ccccc4n3C)cc2n1Cc1ccc(-c2ccccc2C(=O)O)cc1` [Telmisartan], half-maximal inhibition in series [1] (IC50 at 30 min) required 2.8 µM.
On the same count and under the same terms, in the case of `COc1ccc(/C=C/C(=O)Nc2ccccc2C(=O)O)cc1OC` [Tranilast] it was 1.7 µM.
As to Molidustat glucuronide [M1], in series [3] (25 mg molidustat + atazanavir 400 mg qd for 5 days), the t max is reported as 2.0 (1.5‐4.0) H. Moreover, the t max in series [3] (25 mg molidustat alone) is reported as 2.0 (1.0‐3.0) H. Also, in series [3] (setting [4]), the “Point estimate parameter ratio, AUC” value was 0.85 and 0.8472; the “Point estimate parameter ratio, AUC(0‐tlast)” value is on record as 0.8470; the “Point estimate parameter ratio, C max” value was 0.80 and 0.8002. For the same compound, the “reduction in systemic exposure to the glucuronide M1 with atazanavir” value in series [3] (human, in vivo) was −15%. Further, in series [3] (relative to molidustat alone), the “exposure to M1 in the presence of atazanavir” value is listed as “approximately 85%”.
